Experimental data as given in article PMC6017881, “Probing the Influence of Linker Length and Flexibility in the Design and Synthesis of New Trehalase Inhibitors” (Molecules : A Journal of Synthetic Chemistry and Natural …, 2018).
“Also recorded” adds a separate entry of the source. Like-named read-outs stand apart in the source and are kept apart here.

Columns and labels:
[1] = molecular target: T1, porcine kidney trehalase (Sus scrofa, UniProt I3LIR5); assay: Trehalase inhibition, coupled assay with glucose-6-phosphate dehydrogenase and hexokinase (dose-response); assay type: biochemical; conditions: 2.5 mM trehalose (close to Km), 30 °C; read-out: IC50 towards porcine trehalase
T1 construct: porcine kidney trehalase (purchased from Sigma-Aldrich); purchased Sigma-Aldrich; host or cells: porcine kidney
T1 sequence (I3LIR5 24-583): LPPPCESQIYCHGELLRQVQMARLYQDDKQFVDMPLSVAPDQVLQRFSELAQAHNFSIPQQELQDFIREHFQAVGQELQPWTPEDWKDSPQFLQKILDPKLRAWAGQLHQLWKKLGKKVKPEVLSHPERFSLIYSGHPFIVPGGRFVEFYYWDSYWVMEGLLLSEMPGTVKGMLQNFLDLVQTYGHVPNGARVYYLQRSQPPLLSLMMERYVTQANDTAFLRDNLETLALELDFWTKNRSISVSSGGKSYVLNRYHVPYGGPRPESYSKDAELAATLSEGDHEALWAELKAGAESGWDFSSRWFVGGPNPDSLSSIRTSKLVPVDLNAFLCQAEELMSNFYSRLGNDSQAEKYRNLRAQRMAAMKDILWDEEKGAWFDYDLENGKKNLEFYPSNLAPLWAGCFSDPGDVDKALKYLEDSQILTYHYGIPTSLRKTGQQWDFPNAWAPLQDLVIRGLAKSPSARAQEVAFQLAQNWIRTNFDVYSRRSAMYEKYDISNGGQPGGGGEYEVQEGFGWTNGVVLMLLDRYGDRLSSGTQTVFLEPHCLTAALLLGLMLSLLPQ
Procedure: (§1) Compounds were tested for their inhibitory activity against insect trehalase of midge larvae of C. riparius, a good model for biochemical studies, and porcine kidney trehalase (purchased from Sigma-Aldrich, St. Louis, MO, USA) as the mammalian counterpart.
(§2) Trehalase activity was measured through a coupled assay with glucose-6-phosphate dehydrogenase and hexokinase according to Wegener at al. To examine the potential of each compound as a trehalase inhibitor, dose-response curves were established to determine the IC50 values. Experiments were performed at a fixed substrate concentration close to the Km value (0.5 mM for C. riparius and 2.5 mM for porcine trehalase), in the presence of increasing inhibitor concentrations.Initial rates as a function of inhibitor concentration were fitted to the following equation:(1) vi/v=1/1+([I]/IC50)^n where vi and v are the initial rate in the presence and in the absence of inhibitor, respectively, [I] is the inhibitor concentration, IC50 is the inhibitor concentration producing half-maximal inhibition, and n is the Hill coefficient.
(§3) All enzyme assays were performed in triplicates at 30 °C by using sample volumes varying from 5 to 20 μL in 1 mL test and using a Cary3 UV/Vis Spectrophotometer. Enzyme activities were analyzed by Cary Win UV application software for Windows XP.

[2] = molecular target: T2, C. riparius trehalase (Chironomus riparius, UniProt J7EJ73); assay: Inhibition kinetics at varying trehalose concentration (Lineweaver-Burk plot and replots); assay type: biochemical; conditions: varying trehalose concentration at two inhibitor concentrations
Procedure: To evaluate the inhibitory pattern we performed kinetics measurements by varying the trehalose concentration, at two different concentrations of compounds 9α and 9β.
Kinetic experiments were performed using C. riparius trehalase, measuring enzymatic activity at different trehalose concentrations from 0.05 to 20 mM in the presence of fixed inhibitor concentrations (5–10 µM for the compound 9α and 0.5–1 µM for the compound 9β). Kinetic parameters were calculated using a multiparameter, iterative, non-linear regression program based on the Marquardt-Levenberg algorithm (Sigma Plot, Jandel, CA, USA). Data are given ± S.D. of three independent experiments.
as §3

[3] = molecular target: T2, C. riparius trehalase; assay: Trehalase inhibition, coupled assay with glucose-6-phosphate dehydrogenase and hexokinase (dose-response); assay type: biochemical
Procedure: as §1, §2, §3

[4] = molecular target: T1, porcine kidney trehalase; set-up: method as in PMID 25407551; conditions: value taken from the literature; ref [7]; read-out: IC50 towards porcine trehalase; cited from earlier work

T2 sequence (J7EJ73 entry or part of it): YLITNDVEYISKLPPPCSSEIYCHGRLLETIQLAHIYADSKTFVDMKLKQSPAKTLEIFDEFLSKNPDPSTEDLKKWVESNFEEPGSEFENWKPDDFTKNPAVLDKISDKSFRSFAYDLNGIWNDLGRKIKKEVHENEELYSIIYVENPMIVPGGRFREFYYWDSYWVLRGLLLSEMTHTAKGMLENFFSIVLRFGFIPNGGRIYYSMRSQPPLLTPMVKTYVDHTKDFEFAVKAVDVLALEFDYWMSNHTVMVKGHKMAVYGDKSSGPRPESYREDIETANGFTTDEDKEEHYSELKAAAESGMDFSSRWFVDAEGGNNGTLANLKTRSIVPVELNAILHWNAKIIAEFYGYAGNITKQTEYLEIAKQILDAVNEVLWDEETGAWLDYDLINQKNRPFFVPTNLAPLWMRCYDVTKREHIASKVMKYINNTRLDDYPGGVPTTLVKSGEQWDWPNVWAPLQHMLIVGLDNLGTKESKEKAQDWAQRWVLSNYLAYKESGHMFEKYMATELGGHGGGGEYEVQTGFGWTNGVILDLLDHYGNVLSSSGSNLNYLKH

| IC50 [1] [µM] | SMILES | Inhibitory activity towards C. riparius trehalase (in words) [3] | IC50 [4] [µM] | also measured |
| --- | --- | --- | --- | --- |
| 27.6 ± 5.35 | OC[C@@H]1[C@@H](O)[C@H](O)CN1CCO[C@H]1O[C@H](CO)[C@@H](O)[C@H](O)[C@H]1O [Compound 9α] | – | – | Inhibitory pattern (inhibition type) [2]: pure competitive |
| – | OCC1OC(OCCCCN2CC(O)C(O)C2CO)C(O)C(O)C1O (stereo not drawn) [Compound 11] | loose completely their inhibitory properties; also recorded: completely inactive | – | – |
| – | OCC1OC(OCCCN2CC(O)C(O)C2CO)C(O)C(O)C1O (stereo not drawn) [Compound 10] | loose completely their inhibitory properties; also recorded: completely inactive | – | – |
| 5.84 ± 0.26 | OC[C@@H]1[C@@H](O)[C@H](O)CN1CCO[C@@H]1O[C@H](CO)[C@@H](O)[C@H](O)[C@H]1O [Compound 9β] | – | – | Inhibitory pattern (inhibition type) [2]: pure competitive |
| – | OC[C@@H]1[C@@H](O)[C@H](O)[C@H]2[C@H](O)[C@H](O)CN21 [Compound 6, (-)-uniflorine A] | – | > 1000 | – |
| – | OC[C@@H]1[C@@H](O)[C@H](O)[C@H]2C[C@H](O)CN12 [Compound 7, 7-deoxy-uniflorine A] | – | > 1000 | – |
| – | OC[C@@H]1[C@@H](O)[C@H](O)[C@H]2C[C@@H](O[C@H]3O[C@H](CO)[C@@H](O)[C@H](O)[C@H]3O)CN12 [Compound 4, 7-deoxycasuarine glucoside] | – | 0.479 ± 0.045 | – |
| 191 ± 34.1 | OC[C@@H]1[C@@H](O)[C@H](O)[C@H]2C[C@H](O[C@H]3O[C@H](CO)[C@@H](O)[C@H](O)[C@H]3O)CN12 [Compound 8, (1R,2R,3R,6S,7aR)-1,2-dihydroxy-3-(hydroxymethyl)hexahydro-1H-pyrrolizin-6-yl-α-hexopyranoside] | active only in the μM range | – | – |
| 7.67 ± 3.91 | OC[C@@H]1[C@@H](O)[C@H](O)CN1CCOC1O[C@H](CO)[C@@H](O)[C@H](O)[C@H]1O (stereo partly drawn) [9α,β] | – | – | – |
